Measured values reported in patent publication US5208344A, “Naphthalenepropionic acid derivatives as anti-inflammatory/antiallergic agents” (American Home Products Corporation, priority 1991, dated 1993).
Where a name gives a salt, the structure may show the parent alone.

Experiments:
[1] = target: T1, 5-lipoxygenase (Rattus norvegicus, UniProt P12527); assay: inhibition of 5-HETE synthesis by rat glycogen elicited polymorphonuclear leukocytes; type: cell-based; conditions: 10 μM, rat PMN, negative = potentiation of 5-HETE synthesis
T1 construct: Peritoneal PMN are obtained from female Wistar rats (150-250 g); endogenous in cells; host or cells: rat glycogen-elicited peritoneal polymorphonuclear leukocytes, intact
T1 sequence (P12527 1-673): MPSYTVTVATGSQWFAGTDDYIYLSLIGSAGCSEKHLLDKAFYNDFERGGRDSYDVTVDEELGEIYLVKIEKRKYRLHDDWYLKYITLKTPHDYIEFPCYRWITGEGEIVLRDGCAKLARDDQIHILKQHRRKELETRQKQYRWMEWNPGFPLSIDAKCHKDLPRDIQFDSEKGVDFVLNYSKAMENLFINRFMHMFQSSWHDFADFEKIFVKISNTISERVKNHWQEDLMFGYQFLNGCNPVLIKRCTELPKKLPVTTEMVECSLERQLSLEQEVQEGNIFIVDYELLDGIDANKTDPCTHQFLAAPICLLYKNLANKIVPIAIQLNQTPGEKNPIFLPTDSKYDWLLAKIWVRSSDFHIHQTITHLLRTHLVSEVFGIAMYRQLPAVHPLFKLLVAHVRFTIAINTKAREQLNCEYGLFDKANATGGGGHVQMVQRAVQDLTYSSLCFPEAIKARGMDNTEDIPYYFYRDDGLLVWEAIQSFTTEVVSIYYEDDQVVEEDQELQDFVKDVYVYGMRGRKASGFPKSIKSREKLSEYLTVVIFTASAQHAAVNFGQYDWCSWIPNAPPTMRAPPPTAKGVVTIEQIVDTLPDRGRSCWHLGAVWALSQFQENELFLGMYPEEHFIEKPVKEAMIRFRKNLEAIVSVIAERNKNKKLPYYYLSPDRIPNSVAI
Outline: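 Peritoneal PMN from female Wistar rats given i.p. glycogen 24 h earlier were preincubated with compound for 10 min at 37° C (2×10^7 cells/ml, 10 mM L-cysteine). They were then stimulated 10 min with 10 μM A23187 plus 0.5 μM [14C]arachidonic acid. 5-HETE was separated by TLC and quantified by scintillation.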

[2] = tested on: cyclooxygenase; assay: inhibition of synthesis of cyclooxygenase products TxB2 and PGE2 (rat polymorphonuclear leukocytes); type: cell-based; conditions: 10 μM; rat PMN; negative = potentiation of PGE2 synthesis
Outline: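 Glycogen-elicited peritoneal PMN from female Wistar rats, 2×10^7 cells/ml in HBSS with Ca^++, Mg^++ and 10 mM L-cysteine, preincubated with compound 10 min at 37° C. Stimulated 10 min with A23187 (10 μM) plus 0.5 μM [14C] arachidonic acid; TxB2 and PGE2 quantified by TLC, autoradiography and scintillation counting.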

Row | % Inhibition of 5-LO (as 5-HETE) [1] | inhibition at 10 µM ([1]; read-out: % Inhibition of 5-LO (as 5-HETE)) | SMILES | % Inhibition of CO (as PGE2) [2]
1 | 85% | – | C[C@H](C(=O)O)c1ccc2cc(OCc3ccc4ccccc4n3)ccc2c1 [Example 17, S-(α)-α-Methyl-6-(2-quinolinylmethoxy)-2-naphthaleneacetic acid, tromethanime salt] | 20%
2 | – | 100% | C[C@H](C(=O)N(C)O)c1ccc2cc(OCc3ccc4ccccc4n3)ccc2c1 [Example 24, (S)-N-Hydroxy-α-N-dimethyl-6-(2-quinolinylmethoxy)-2-naphthaleneacetamide] | 13%
